Assay results from patent publication US8802597B2, “Herbicidal pyrimidines” (E I du Pont de Nemours and Company, priority 2003, dated 2014).

Columns and labels:
Assay type in all cases: in vivo
[1] = test system: lambsquarters (Chenopodium album); test: Test C pre/postemergence; conditions: for Lambsquarters plant response rating: scale 0 to 100 (0 no effect, 100 complete control)
Description: (§1) Seeds or nutlets of plant species selected from bermudagrass (Cynodon dactylon), Surinam grass (Brachiaria decumbens), cocklebur (Xanthium strumarium), corn (Zea mays), crabgrass (Digitaria sanguinalis), woolly cupgrass (Eriochloa villosa), giant foxtail (Setaria faberii), goosegrass (Eleusine indica), johnsongrass (Sorghum halepense), kochia (Kochia scoparia), lambsquarters (Chenopodium album), morningglory (Ipomoea coccinea), eastern black nightshade (Solanum ptycanthum), yellow nutsedge (Cyperus esculentus), pigweed (Amaranthus retroflexus), common ragweed (Ambrosia elatior), soybean (Glycine max), common (oilseed) sunflower (Helianthus annuus), and velvetleaf (Abutilon theophrasti) were planted and treated preemergence with test chemicals formulated in a non-phytotoxic solvent mixture which included a surfactant.
(§2) At the same time, plants selected from these crop and weed species and also winter barley (Hordeum vulgare), blackgrass (Alopecurus myosuroides), canarygrass (Phalaris minor), chickweed (Stellaria media), downy brome (Bromus tectorum), green foxtail (Setaria viridis), Italian ryegrass (Lolium multiflorum), wheat (Triticum aestivum), wild oat (Avena fatua) and windgrass (Apera spica-venti) were treated with postemergence applications of some of the test chemicals formulated in the same manner. Plants ranged in height from 2 to 18 cm (1- to 4-leaf stage) for postemergence treatments. Plant species in the flooded paddy test consisted of rice (Oryza sativa), umbrella sedge (Cyperus difformis), duck salad (Heteranthera limosa) and barnyardgrass (Echinochloa crus-galli) grown to the 2-leaf stage for testing. Treated plants and controls were maintained in a greenhouse for 12 to 14 days, after which time all species were compared to controls and visually evaluated. Plant response ratings, summarized in Table C, are based on a scale of 0 to 100 where 0 is no effect and 100 is complete control. A dash (-) response means no test result.

corn (Zea mays) = test: Test C pre/postemergence; conditions: for Corn plant response rating: scale 0 to 100 (0 no effect, 100 complete control)
Description: as §1, §2

[2] = test system: cocklebur (Xanthium strumarium); test: Test C pre/postemergence; conditions: for Cocklebur plant response rating: scale 0 to 100 (0 no effect, 100 complete control)
Description: as §1, §2

[3] = test system: common ragweed (Ambrosia elatior); test: Test C pre/postemergence; conditions: for Ragweed plant response rating: scale 0 to 100 (0 no effect, 100 complete control)
Description: as §1, §2

[4] = test system: chickweed (Stellaria media); test: Test C postemergence; conditions: for Chickweed plant response rating: scale 0 to 100 (0 no effect, 100 complete control); for Plant response rating, Chickweed: scale 0 to 100
Procedure, shortened: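 Greenhouse herbicide screen, visual readout. Compound in solvent/surfactant applied preemergence at planting or postemergence to 1- to 4-leaf plants; assessed at 12–14 days on a 0–100 control scale.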

[5] = Postemergence, 250 g ai/ha, scale 0 to 100
[6] = Preemergence, 31 g ai/ha, scale 0 to 100, 0 no effect, 100 complete control
[7] = Preemergence, 62 g ai/ha, scale 0 to 100, 0 no effect, 100 complete control
[8] = Preemergence, 125 g ai/ha, scale 0 to 100
[9] = Preemergence, 250 g ai/ha, scale 0 to 100
[10] = Postemergence, 500 g ai/ha, scale 0 to 100
[11] = Preemergence, 500 g ai/ha, scale 0 to 100
[12] = Preemergence, 16 g ai/ha, scale 0 to 100, 0 no effect, 100 complete control

Compound | Lambsquarters plant response rating ([1]; Postemergence, 62 g ai/ha) | Lambsquarters plant response rating ([1]; Postemergence, 125 g ai/ha) | Plant response rating, Lambsquarters [1, 5] | Plant response rating, Lambsquarters [1, 7] | Plant response rating, Lambsquarters [1, 8] | Plant response rating, Lambsquarters [1, 9] | Corn plant response rating (corn (Zea mays); Postemergence, 62 g ai/ha) | Corn plant response rating (corn (Zea mays); Postemergence, 125 g ai/ha) | Plant response rating, Corn (corn (Zea mays); [5]) | Plant response rating, Corn (corn (Zea mays); [7]) | Plant response rating, Corn (corn (Zea mays); [8]) | Cocklebur plant response rating ([2]; Postemergence, 62 g ai/ha) | Cocklebur plant response rating ([2]; Postemergence, 125 g ai/ha) | Plant response rating, Cocklebur [2, 7] | Plant response rating, Cocklebur [2, 8] | Ragweed plant response rating ([3]; Postemergence, 62 g ai/ha) | Ragweed plant response rating ([3]; Postemergence, 125 g ai/ha) | Plant response rating, Ragweed [3, 7] | Plant response rating, Ragweed [3, 8] | Chickweed plant response rating ([4]; 62 g ai/ha) | other results
CCCCOC(=O)c1nc(C2CC2)nc(N)c1Br [Compound 16] | 100 | 100 | 100 | 95 | 100 | 100 | 0 | 20 | 55 | 15 | 20 | 95 | 100 | 95 | 95 | 85 | 95 | 90 | 95 | 0 | Plant response rating (scale of 0 to 100), Lambsquarters ([1]; Postemergence, 31 g ai/ha): 95; Plant response rating, Lambsquarters [1, 6]: 95; Plant response rating (scale of 0 to 100), Corn (corn (Zea mays); Postemergence, 31 g ai/ha): 0; Plant response rating, Corn (corn (Zea mays); [6]): 0; Plant response rating, Corn (corn (Zea mays); [9]): 75; Plant response rating (scale of 0 to 100), Cocklebur ([2]; Postemergence, 31 g ai/ha): 75; Plant response rating, Cocklebur [2, 5]: 100; Plant response rating, Cocklebur [2, 6]: 45; Plant response rating, Cocklebur [2, 9]: 100; Plant response rating (scale of 0 to 100), Ragweed ([3]; Postemergence, 31 g ai/ha): 60; Plant response rating, Ragweed [3, 5]: 95; Plant response rating, Ragweed [3, 6]: 45; Plant response rating, Ragweed [3, 9]: 100; Plant response rating (scale of 0 to 100), Chickweed ([4]; 31 g ai/ha): 0; Plant response rating, Chickweed ([4]; 125 g ai/ha): 20; Plant response rating, Chickweed ([4]; 250 g ai/ha): 35
CNN=Cc1nc(C2CC2)nc(N)c1Br [Compound 49] | 70 | 90 | 95 | 100 | 100 | 100 | 0 | 0 | 20 |  | 15 | 75 | 95 | 20 | 95 | 45 | 65 | 70 | 100 | 0 | Plant response rating, Lambsquarters [1, 10]: 95; Plant response rating, Lambsquarters [1, 11]: 100; Plant response rating, Corn (corn (Zea mays); [10]): 25; Plant response rating, Corn (corn (Zea mays); [9]): 15; Plant response rating, Corn (corn (Zea mays); [11]): 65; Plant response rating, Cocklebur [2, 5]: 95; Plant response rating, Cocklebur [2, 10]: 95; Plant response rating, Cocklebur [2, 9]: 95; Plant response rating, Cocklebur [2, 11]: 100; Plant response rating, Ragweed [3, 5]: 75; Plant response rating, Ragweed [3, 10]: 90; Plant response rating, Ragweed [3, 9]: 100; Plant response rating, Ragweed [3, 11]: 100; Chickweed plant response rating ([4]; 125 g ai/ha): 0; Plant response rating, Chickweed ([4]; 250 g ai/ha): 40; Plant response rating, Chickweed ([4]; 500 g ai/ha): 45
CCCOC(=O)c1nc(C2CC2)nc(N)c1Br [Compound 15] | 100 | 100 | 100 | 95 | 100 | 100 | 15 | 15 | 55 | 0 | 15 | 85 | 100 | 65 | 90 | 75 | 85 | 90 | 95 | 20 | Plant response rating, Lambsquarters [1, 10]: 100; Plant response rating, Lambsquarters [1, 11]: 100; Plant response rating, Corn (corn (Zea mays); [10]): 75; Plant response rating, Corn (corn (Zea mays); [9]): 45; Plant response rating, Corn (corn (Zea mays); [11]): 60; Plant response rating, Cocklebur [2, 5]: 100; Plant response rating, Cocklebur [2, 10]: 100; Plant response rating, Cocklebur [2, 9]: 100; Plant response rating, Cocklebur [2, 11]: 100; Plant response rating, Ragweed [3, 5]: 90; Plant response rating, Ragweed [3, 10]: 95; Plant response rating, Ragweed [3, 9]: 100; Plant response rating, Ragweed [3, 11]: 100; Plant response rating, Chickweed ([4]; 125 g ai/ha): 50; Plant response rating, Chickweed ([4]; 250 g ai/ha): 65; Plant response rating, Chickweed ([4]; 500 g ai/ha): 85
COC(=O)c1nc(C2CC2)nc(N=CN(C)C)c1Br [Compound 19] | 90 | 95 |  | 100 | 100 |  | 0 | 35 |  | 0 | 0 | 50 | 90 | 65 | 80 | 70 | 80 | 70 | 80 | 5 | Plant response rating (scale of 0 to 100), Lambsquarters ([1]; Postemergence, 16 g ai/ha): 70; Plant response rating (scale of 0 to 100), Lambsquarters ([1]; Postemergence, 31 g ai/ha): 90; Plant response rating, Lambsquarters [1, 12]: 75; Plant response rating, Lambsquarters [1, 6]: 100; Plant response rating (scale of 0 to 100), Corn (corn (Zea mays); Postemergence, 16 g ai/ha): 0; Plant response rating (scale of 0 to 100), Corn (corn (Zea mays); Postemergence, 31 g ai/ha): 0; Plant response rating, Corn (corn (Zea mays); [12]): 0; Plant response rating, Corn (corn (Zea mays); [6]): 0; Plant response rating (scale of 0 to 100), Cocklebur ([2]; Postemergence, 16 g ai/ha): 25; Plant response rating (scale of 0 to 100), Cocklebur ([2]; Postemergence, 31 g ai/ha): 25; Plant response rating, Cocklebur [2, 12]: 15; Plant response rating, Cocklebur [2, 6]: 30; Plant response rating (scale of 0 to 100), Ragweed ([3]; Postemergence, 16 g ai/ha): 35; Plant response rating (scale of 0 to 100), Ragweed ([3]; Postemergence, 31 g ai/ha): 40; Plant response rating, Ragweed [3, 12]: 55; Plant response rating, Ragweed [3, 6]: 55; Plant response rating (scale of 0 to 100), Chickweed ([4]; 16 g ai/ha): 0; Plant response rating (scale of 0 to 100), Chickweed ([4]; 31 g ai/ha): 0; Plant response rating, Chickweed ([4]; 125 g ai/ha): 5
